{"source": "patent US8962631B2", "about": "(Vertex Pharmaceuticals Incorporated, priority 2010, dated 2015)", "target": "T1, full-length ATR (Homo sapiens, UniProt Q13535)", "T1 construct": "Assays were carried out at 25° C. in the presence of 5 nM full-length ATR", "T1 sequence (Q13535 whole entry)": "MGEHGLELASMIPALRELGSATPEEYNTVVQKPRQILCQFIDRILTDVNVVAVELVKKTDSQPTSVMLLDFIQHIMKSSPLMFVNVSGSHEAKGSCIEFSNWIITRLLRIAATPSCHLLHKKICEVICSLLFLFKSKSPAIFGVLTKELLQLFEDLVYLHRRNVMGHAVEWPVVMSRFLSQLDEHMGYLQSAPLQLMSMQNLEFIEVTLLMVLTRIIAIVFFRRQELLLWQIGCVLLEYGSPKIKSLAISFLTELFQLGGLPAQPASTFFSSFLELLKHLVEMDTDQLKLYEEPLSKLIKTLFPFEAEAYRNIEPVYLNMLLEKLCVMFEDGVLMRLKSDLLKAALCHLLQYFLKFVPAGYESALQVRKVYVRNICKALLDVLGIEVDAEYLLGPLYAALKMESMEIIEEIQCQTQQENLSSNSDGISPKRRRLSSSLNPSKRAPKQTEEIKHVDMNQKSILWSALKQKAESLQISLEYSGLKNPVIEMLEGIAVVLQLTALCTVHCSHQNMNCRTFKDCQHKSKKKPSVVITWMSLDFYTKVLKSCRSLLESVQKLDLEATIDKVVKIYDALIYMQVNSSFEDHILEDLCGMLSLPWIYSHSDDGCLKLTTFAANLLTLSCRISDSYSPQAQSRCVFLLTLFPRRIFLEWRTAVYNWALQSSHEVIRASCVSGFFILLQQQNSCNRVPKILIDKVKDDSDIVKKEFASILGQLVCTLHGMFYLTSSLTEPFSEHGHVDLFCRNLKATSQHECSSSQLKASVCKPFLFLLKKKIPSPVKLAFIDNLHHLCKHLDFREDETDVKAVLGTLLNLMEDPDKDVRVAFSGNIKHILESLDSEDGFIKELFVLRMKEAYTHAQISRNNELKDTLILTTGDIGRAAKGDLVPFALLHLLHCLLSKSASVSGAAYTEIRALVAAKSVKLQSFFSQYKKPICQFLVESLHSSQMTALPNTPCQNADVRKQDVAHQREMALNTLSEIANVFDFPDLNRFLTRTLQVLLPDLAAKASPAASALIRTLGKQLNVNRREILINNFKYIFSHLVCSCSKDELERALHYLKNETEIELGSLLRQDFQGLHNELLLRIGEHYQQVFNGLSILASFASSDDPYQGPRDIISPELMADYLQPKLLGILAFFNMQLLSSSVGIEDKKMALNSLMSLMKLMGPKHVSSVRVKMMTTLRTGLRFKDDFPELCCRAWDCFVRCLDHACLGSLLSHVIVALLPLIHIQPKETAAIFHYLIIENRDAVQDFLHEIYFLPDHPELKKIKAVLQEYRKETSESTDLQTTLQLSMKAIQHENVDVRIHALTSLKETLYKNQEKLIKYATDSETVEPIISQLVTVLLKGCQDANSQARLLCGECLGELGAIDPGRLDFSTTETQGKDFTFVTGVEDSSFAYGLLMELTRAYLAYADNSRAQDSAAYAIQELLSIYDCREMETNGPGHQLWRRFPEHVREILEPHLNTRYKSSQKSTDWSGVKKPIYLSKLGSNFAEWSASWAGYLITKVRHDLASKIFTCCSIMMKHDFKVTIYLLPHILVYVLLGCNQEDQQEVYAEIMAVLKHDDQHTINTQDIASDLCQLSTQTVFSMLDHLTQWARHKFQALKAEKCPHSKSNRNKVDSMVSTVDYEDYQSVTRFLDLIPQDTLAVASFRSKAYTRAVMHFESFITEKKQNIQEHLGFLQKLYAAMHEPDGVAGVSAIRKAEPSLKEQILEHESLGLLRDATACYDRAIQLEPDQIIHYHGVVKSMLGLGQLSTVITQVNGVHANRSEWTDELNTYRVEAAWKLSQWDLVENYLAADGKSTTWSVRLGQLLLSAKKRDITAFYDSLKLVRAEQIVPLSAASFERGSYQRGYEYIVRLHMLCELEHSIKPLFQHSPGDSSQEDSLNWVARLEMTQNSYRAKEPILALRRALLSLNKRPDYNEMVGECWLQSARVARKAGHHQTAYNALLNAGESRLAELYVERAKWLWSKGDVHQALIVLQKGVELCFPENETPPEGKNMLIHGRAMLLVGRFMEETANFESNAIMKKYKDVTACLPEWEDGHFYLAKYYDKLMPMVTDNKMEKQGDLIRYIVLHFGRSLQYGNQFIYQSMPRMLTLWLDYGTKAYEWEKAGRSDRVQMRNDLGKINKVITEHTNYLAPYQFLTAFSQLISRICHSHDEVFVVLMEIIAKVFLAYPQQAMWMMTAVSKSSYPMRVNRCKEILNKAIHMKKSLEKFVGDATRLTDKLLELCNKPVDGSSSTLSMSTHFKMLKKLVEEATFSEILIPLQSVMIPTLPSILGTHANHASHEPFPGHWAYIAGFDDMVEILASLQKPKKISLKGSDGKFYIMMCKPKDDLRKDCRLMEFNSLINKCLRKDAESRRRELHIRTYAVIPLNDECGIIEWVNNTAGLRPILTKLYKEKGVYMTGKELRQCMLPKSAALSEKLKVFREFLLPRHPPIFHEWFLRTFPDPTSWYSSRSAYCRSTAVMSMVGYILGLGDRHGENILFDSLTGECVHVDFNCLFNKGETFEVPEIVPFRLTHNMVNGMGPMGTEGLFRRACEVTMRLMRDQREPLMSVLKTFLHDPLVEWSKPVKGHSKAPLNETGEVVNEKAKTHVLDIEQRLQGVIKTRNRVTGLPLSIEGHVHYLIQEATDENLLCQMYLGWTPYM", "assay": "ATR Inhibition Assay (radioactive-phosphate incorporation)", "assay_type": "biochemical", "conditions": "Ki(app); 10 μM ATP, 800 μM target peptide, 5 nM full-length ATR, 25° C.", "description": "Compounds were screened for their ability to inhibit ATR kinase using a radioactive-phosphate incorporation assay. Assays were carried out in a mixture of 50 mM Tris/HCl (pH 7.5), 10 mM MgCl2 and 1 mM DTT. Final substrate concentrations were 10 μM [γ-33P]ATP (3 mCi 33P ATP/mmol ATP, Perkin Elmer) and 800 μM target peptide ([…] (SEQ. ID NO: 1)).\nAssays were carried out at 25° C. in the presence of 5 nM full-length ATR. An assay stock buffer solution was prepared containing all of the reagents listed above, with the exception of ATP and the test compound of interest. 13.5 μL of the stock solution was placed in a 96 well plate followed by addition of 2 μL of DMSO stock containing serial dilutions of the test compound (typically starting from a final concentration of 15 μM with 3-fold serial dilutions) in duplicate (final DMSO concentration 7%). The plate was pre-incubated for 10 minutes at 25° C. and the reaction initiated by addition of 15 μL [γ-33P]ATP (final concentration 10 μM).\nThe reaction was stopped after 24 hours by the addition of 30 μL 0.1M phosphoric acid containing 2 mM ATP. A multiscreen phosphocellulose filter 96-well plate (Millipore, Cat no. MAPHN0B50) was pretreated with 100 μL 0.2M phosphoric acid prior to the addition of 45 μL of the stopped assay mixture. The plate was washed with […] 0.2M phosphoric acid. After drying, 100 μL Optiphase ‘SuperMix’ liquid scintillation cocktail (Perkin Elmer) was added to the well prior to scintillation counting (1450 Microbeta Liquid Scintillation Counter, Wallac).\nAfter removing mean background values for all of the data points, Ki(app) data were calculated from non-linear regression analysis of the initial rate data using the Prism software package (GraphPad Prism version 3.0cx for Macintosh, GraphPad Software, San Diego Calif., USA)."}
{"smiles": "COCC#Cc1cnc(N)c(-c2nc3ccc(C)cc3[nH]2)n1", "note": "[II-83, 5-(3-Methoxyprop-1-ynyl)-3-(6-methyl-1H-benzimidazol-2-yl)pyrazin-2-amine]", "values": [{"measurement": "Ki", "value": "0.5 to 1", "unit": "µM"}]}
{"smiles": "Cc1ccc2nc(-c3nc(C#CCN(C)C)cnc3N)[nH]c2c1", "note": "[II-84, 5-[3-(Dimethylamino)prop-1-ynyl]-3-(6-methyl-1H-benzimidazol-2-yl)pyrazin-2-amine]", "values": [{"measurement": "Ki", "value": "1 to 8", "unit": "µM"}]}
{"smiles": "Cc1ccc2nc(-c3nc(C#CCN4CCS(=O)(=O)CC4)cnc3N)[nH]c2c1", "note": "[II-85, 5-[3-(1,1-Dioxo-1,4-thiazinan-4-yl)prop-1-ynyl]-3-(6-methyl-1H-benzimidazol-2-yl)pyrazin-2-amine]", "values": [{"measurement": "Ki", "value": "≤ 0.5", "unit": "µM"}]}
{"smiles": "Cc1ccc2nc(-c3nc(C#CCNC(N)=O)cnc3N)[nH]c2c1", "note": "[II-86, 3-[5-Amino-6-(6-methyl-1H-benzimidazol-2-yl)pyrazin-2-yl]prop-2-ynylurea]", "values": [{"measurement": "Ki", "value": "1 to 8", "unit": "µM"}]}
{"smiles": "Cc1ccc2nc(-c3nc(C#CCNS(C)(=O)=O)cnc3N)[nH]c2c1", "note": "[II-87, N-[3-[5-Amino-6-(6-methyl-1H-benzimidazol-2-yl)pyrazin-2-yl]prop-2-ynyl]methanesulfonamide]", "values": [{"measurement": "Ki", "value": "0.5 to 1", "unit": "µM"}]}
{"smiles": "CC(=O)NCC#Cc1cnc(N)c(-c2nc3ccc(C)cc3[nH]2)n1", "note": "[II-88, N-[3-[5-amino-6-(6-methyl-1H-benzimidazol-2-yl)pyrazin-2-yl]prop-2-ynyl]acetamide]", "values": [{"measurement": "Ki", "value": "≤ 0.5", "unit": "µM"}]}
{"smiles": "Nc1ncc(C#CCCO)nc1-c1nnc(-c2ccccc2)o1", "note": "[II-89, 4-[5-amino-6-(5-phenyl-1,3,4-oxadiazol-2-yl)pyrazin-2-yl]but-3-yn-1-ol]", "values": [{"measurement": "Ki", "value": "1 to 8", "unit": "µM"}]}
{"smiles": "Nc1ncc(C#CCO)nc1-c1nnc(-c2ccccc2)o1", "note": "[II-90, 3-[5-amino-6-(5-phenyl-1,3,4-oxadiazol-2-yl)pyrazin-2-yl]prop-2-yn-1-ol]", "values": [{"measurement": "Ki", "value": "1 to 8", "unit": "µM"}]}
{"smiles": "CC(=O)Nc1cnc(N)c(-c2nc3ccccc3[nH]2)n1", "note": "[II-91, N-[5-Amino-6-(1H-benzimidazol-2-yl)pyrazin-2-yl]acetamide]", "values": [{"measurement": "Ki", "value": "≤ 0.5", "unit": "µM"}]}
{"smiles": "Cc1ccc2nc(-c3nc(NC(=O)CC#N)cnc3N)[nH]c2c1", "note": "[II-92, N-(5-Amino-6-(6-methyl-1H-benzo[d]imidazol-2-yl)pyrazin-2-yl)-2-cyanoethanamide]", "values": [{"measurement": "Ki", "value": "0.5 to 1", "unit": "µM"}]}
